The record followed here is US8058243B2, “Method for treating a brain cancer with ifenprodil” (HSC Research and Development Limited Partnership, priority 2006, dated 2011).

Structures are written as SMILES. Like-named read-outs stand apart in the source and are kept apart here.

This experiment concerns murine neural precursor cells (neurosphere cultures). Briefly: HTS of LOPAC library against secondary neurosphere cultures, MTT proliferation assay at 3 μM, day 7 (z score, P value). The experiment is classed as cell-based, mouse.
[1] abbreviates: LOPAC primary screen, neurosphere MTT proliferation, 3 μM, day 7.
Where [2] appears, read: yes/no: significantly inhibited neurosphere proliferation (P<0.01) in primary screen.
[3] abbreviates: primary LOPAC screen, 3 μM, MTT, neurosphere proliferation.
Where [4] appears, read: yes/no: significantly inhibited neurosphere proliferation in the primary screen.
Setting [5] is: yes/no: significantly inhibited neurosphere proliferation (P<0.01) in the primary screen.
Setting [6] is: LOPAC library screen, 3 μM, MTT, secondary neurosphere cultures, day 7.
[7] abbreviates: yes = significantly inhibited neurosphere proliferation (P<0.01) in the primary screen.
The mark [8] stands for this setting: LOPAC library screen at 3 μM, secondary neurosphere cultures, MTT.

Take `CC(=O)[C@@]1(O)CC[C@H]2[C@@H]3CCC4=CC(=O)CC[C@]4(C)[C@H]3CC[C@@]21C` [17alpha-hydroxyprogesterone]: the “Z Score” value is −0.5783. Moreover, the Z score under setting [1] is listed as −0.578. The Activity result under setting [2] was “no”. Turning to `CC(N)=NCc1cccc(CN)c1.Cl.Cl` [1400W dihydrochloride], the “Z Score” value is reported as −0.2749. The Z score under setting [3] is −0.275. For the same compound, under setting [4], the Activity entry is listed as “no”.

Regarding `CN1CCc2cc3c(cc2[C@H]1[C@@H]1OC(=O)c2c1ccc1c2OCO1)OCO3` [(+)-Bicuculline], the “Z Score” value was −0.1989. The Z score under setting [1] is on record as −0.199. Besides, under setting [5], the Activity entry is given as “no”.

With `CC(C)C[C@H]1C(=O)N2CCC[C@H]2[C@]2(O)O[C@](NC(=O)[C@@H]3C=C4c5cccc6[nH]c(Br)c(c56)C[C@H]4N(C)C3)(C(C)C)C(=O)N12.CS(=O)(=O)O` [(+)-Bromocriptine methanesulfonate], the “Z Score” value is reported as 0.02792. In addition, the Z score under setting [3] is given as 0.028. For the same compound, the Activity entry under setting [4] is listed as “no”. With `CC[C@@H]1C(=O)OC[C@@H]1Cc1cncn1C.Cl` [(+)-Pilocarpine hydrochloride], under setting [6], the “Z Score” value was −1.548. Also, the Z score under setting [1] is listed as −1.548. Besides, the Activity result under setting [7] was “no”. Regarding `N[C@@H](Cn1oc(=O)[nH]c1=O)C(=O)O` [(+)-Quisqualic acid], the “Z Score” value is given as 0.4361. The compound further gave a Z score under setting [1] of 0.436. The Activity entry (yes/no: significantly inhibited neurosphere proliferation in primary screen) is given as “no”. For `C[C@@H]1OC[C@H](C[N+](C)(C)C)O1.[I-]` [(+)-cis-Dioxolane iodide], the “Z Score” value was −3.402. The Z score under setting [1] is −3.402. In addition, under setting [5], the Activity entry was “yes”.

On to `NC(CP(=O)(O)O)C(=O)O` (stereo not shown) [(B1)-2-Amino-3-phosphonopropionic acid], for which the “Z Score” value was determined as 1.25.

Regarding `NC(CCP(=O)(O)O)C(=O)O` (stereo not shown) [(B1)-2-Amino-4-phosphonobutyric acid], the “Z Score” value was 1.893.

Take `NC(CCCP(=O)(O)O)C(=O)O` (stereo not shown) [(B1)-2-Amino-5-phosphonopentanoic acid]: the “Z Score” value is listed as −1.045.

`NC(CCCCCP(=O)(O)O)C(=O)O` (stereo not shown) [(B1)-2-Amino-7-phosphonoheptanoic acid]: the “Z Score” value was −1.02. Still for that read-out and setting: for `Br.Oc1cc2c(c(Cl)c1O)CCNCC2c1ccccc1` (stereo not shown) [(B1)-6-Chloro-PB hydrobromide] the value was −2.267; for `Br.CCCN(CCC)C1CCc2ccc(O)cc2C1` (stereo not shown) [(B1)-7-Hydroxy-DPAT hydrobromide], −11.1.

Regarding `Br.CCCN(CCC)C1CCc2cccc(O)c2C1` (stereo not shown) [(B1)-8-Hydroxy-DPAT hydrobromide], the “Z Score” value was 0.6561. Same read-out and setting: under `Br.Cc1o[nH]c(=O)c1CC(N)C(=O)O` (stereo not shown) [(B1)-AMPA hydrobromide] stands −0.4272.

Turning to `CC(C)NCC(O)COc1ccc(CC(N)=O)cc1` (stereo not shown) [(B1)-Atenolol], the “Z Score” value under setting [8] is on record as −0.6583. For `NCC(CC(=O)O)c1ccc(Cl)cc1` (stereo not shown) [(B1)-Baclofen], the “Z Score” value is −1.069. On the same count and under the same terms, for `COC(=O)C1=C(C)NC(C)=C([N+](=O)[O-])C1c1ccccc1C(F)(F)F` (stereo not shown) [(B1)-Bay K 8644] the value was 0.8527; for `CN(C)CCC(c1ccc(Br)cc1)c1ccccn1.O=C(O)/C=C\C(=O)O` (stereo not shown) [(B1)-Brompheniramine maleate], −3.53. Turning to `CC(C)(C)[C@]1(O)CCN2C[C@H]3c4ccccc4CCc4cccc(c43)[C@@H]2C1.Cl` [(B1)-Butaclamol hydrochloride], the “Z Score” value is −5.934. Turning to `CC(C)(C)NCC(O)COc1cccc2[nH]c(=O)[nH]c12.Cl` (stereo not shown) [(B1)-CGP-12177A hydrochloride], the “Z Score” value is −1.611. The same measure, in the same setting: for `O=C(O)C1CN(CCCP(=O)(O)O)CCN1` (stereo not shown) [(B1)-CPP] the value was 0.3213. On the same count and under the same terms, under `Br.C=CCN1CCc2c(cc(O)c(O)c2Cl)C(c2ccccc2)C1` (stereo not shown) [(B1)-Chloro-APB hydrobromide] stands −0.111; under `CN(C)CCC(c1ccc(Cl)cc1)c1ccccn1.O=C(O)/C=C\C(=O)O` (stereo not shown) [(B1)-Chlorpheniramine maleate], −2.116; under `COc1cc(CC(C)N)c(OC)cc1I.Cl` (stereo not shown) [(B1)-DOI hydrochloride], −1.345. As to `CNCC(O)c1ccc(O)c(O)c1.Cl` (stereo not shown) [(B1)-Epinephrine hydrochloride], the “Z Score” value under setting [8] is −0.3279. Consider `NC1CCN(O)C1=O` (stereo not shown) [(B1)-HA-966], for which the “Z Score” value worked out at 1.157. `N[C@H](C(=O)O)c1cc(O)no1` [(B1)-Ibotenic acid]: the “Z Score” value is on record as −1.65. The same measure, in the same setting: for `CC(C)Cc1ccc(C(C)C(=O)O)cc1` (stereo not shown) [(B1)-Ibuprofen] the value was −0.2623; for `CC(C)NCC(O)c1ccc(O)c(O)c1.Cl` (stereo not shown) [(B1)-Isoproterenol hydrochloride], −0.5717; for `COc1ccc(CCN(C)CCCC(C#N)(c2cc(OC)c(OC)c(OC)c2)C(C)C)cc1OC.Cl` (stereo not shown) [(B1)-Methoxyverapamil hydrochloride], −1.407. For the compound `COCCc1ccc(OCC(O)CNC(C)C)cc1.O=C(O)C(O)C(O)C(=O)O` (stereo not drawn) [(B1)-Metoprolol (+)-tartrate], the “Z Score” value was −0.2689. On the same count and under the same terms, under `C[C@@H]1O[C@H](C[N+](C)(C)C)C[C@H]1O.[Cl-]` [(B1)-Muscarine chloride] stands −1.905. On the same count and under the same terms, for `O=C(O)C1CCCNC1` (stereo not shown) [(B1)-Nipecotic acid] the value was −0.7215; for `NC[C@H](O)c1ccc(O)c(O)c1.O=C(O)C(O)C(O)C(=O)O` [(B1)-Norepinephrine (+)bitartrate], 0.09903.

For `COc1cc(C(O)CN)ccc1O.Cl` (stereo not shown) [(B1)-Normetanephrine hydrochloride], under setting [6], the “Z Score” value is −1.796. In the case of `CN1CCN(C2Cc3ccccc3Sc3ccc(Cl)cc32)CC1.O=C(O)/C=C\C(=O)O` (stereo not shown) [(B1)-Octoclothepin maleate], the “Z Score” value turned out to be 1.473.

For the compound `Cl.NCC(O)c1ccc(O)cc1` (stereo not shown) [(B1)-Octopamine hydrochloride], the “Z Score” value is on record as −1.567. The same measure, in the same setting: for `CCCN1CCO[C@@H]2c3cc(O)ccc3OC[C@H]21.Cl` [(B1)-PD 128,907 hydrochloride] the value was 1.164; for `CCCN(CCc1ccccc1)C1CCc2c(O)cccc2C1.Cl` (stereo not shown) [(B1)-PPHT hydrochloride], −1.915. For `CC(C)NCC(O)COc1cccc2ccccc12.Cl` (stereo not shown) [(B1)-Propranolol hydrochloride], the “Z Score” value (LOPAC library screen, 3 μM, MTT, neurosphere cultures) is 0.3567. With `Br.C=CCN1CCc2cc(O)c(O)cc2C(c2ccccc2)C1` (stereo not shown) [(B1)-SKF 38393, N-allyl-, hydrobromide], the “Z Score” value is −1.59. The same measure, in the same setting: under `Cl.Oc1cc2c(cc1O)C(c1ccccc1)CNCC2` (stereo not shown) [(B1)-SKF-38393 hydrochloride] stands 1.28; under `CC(C)NCC(O)c1ccc(NS(C)(=O)=O)cc1.Cl` (stereo not shown) [(B1)-Sotalol hydrochloride], −0.813. With `CCN1CCCC1CNC(=O)c1cc(S(N)(=O)=O)ccc1OC` (stereo not shown) [(B1)-Sulpiride], the “Z Score” value is listed as −0.2841. `CNCC(O)c1ccc(O)cc1` (stereo not shown) [(B1)-Synephrine]: the “Z Score” value is −0.1488. On the same count and under the same terms, for `O=C1c2c(O)cc(O)cc2OC(c2ccc(O)c(O)c2)C1O` (stereo not shown) [(B1)-Taxifolin] the value was 1.321; for `O=C1CCC(N2C(=O)c3ccccc3C2=O)C(=O)N1` (stereo not shown) [(B1)-Thalidomide], 0.521; for `COc1cc(C(O)C(=O)O)ccc1O` (stereo not shown) [(B1)-Vanillylmandelic acid], −1.811. The same measure, in the same setting: under `COc1ccc(CCN(C)CCCC(C#N)(c2ccc(OC)c(OC)c2)C(C)C)cc1OC.Cl` (stereo not shown) [(B1)-Verapamil hydrochloride] stands 1.008; under `Cl.OC1CCCCC1N1CCC(c2ccccc2)CC1` (stereo not shown) [(B1)-Vesamicol hydrochloride], −1.967. Regarding `O=C(O)CCCCC1CCSS1` (stereo not drawn) [(B1)-alpha-Lipoic Acid], the “Z Score” value is listed as 0.3418. On the same count and under the same terms, under `CC(N)(C(=O)O)c1ccc(C(=O)O)cc1` (stereo not drawn) [(B1)-alpha-Methyl-4-carboxyphenylglycine] stands 0.727.

On to `C=CC(N)CCC(=O)O` (stereo not shown) [(B1)-gamma-Vinyl GABA], for which the “Z Score” value is −0.701. `CCC1(c2ccc(N)cc2)CCC(=O)NC1=O` (stereo not shown) [(B1)-p-Aminoglutethimide]: the “Z Score” value is −0.4441. Take `NC(Cc1ccc(Cl)cc1)C(=O)O` (stereo not shown) [(B1)-p-Chlorophenylalanine]: the “Z Score” value is on record as −0.2471.

Consider `NC/C=C/C(=O)O` [(E)-4-amino-2-butenoic acid], for which the “Z Score” value under setting [6] is reported as −2.149. Further, under setting [3], the Z score is listed as −2.149. The Activity result under setting [4] is given as “no”. As to `O=c1[nH]c(=O)n([C@H]2C[C@H](O)[C@@H](CO)O2)cc1/C=C/Br` [(E)-5-(2-Bromovinyl)-2′-deoxyuridine], where the note is “168 h, 3 µM”, the “Z Score” value is −2.123 and the Z score is −2.123. Further, the Activity result under setting [2] is given as “no”. Consider `CS(=O)(=O)O.Cc1c(C(=O)c2cccc3ccccc23)c2cccc3c2n1[C@H](CN1CCOCC1)CO3` [(R)-(+)-WIN 55,212-2 mesylate], for which the “Z Score” value is −0.6807. Under setting [3], this compound showed a Z score of −0.681. Also, the Activity result under setting [4] was “no”.

For `N[C@H](C(=O)O)c1cc(O)cc(O)c1` [(S)-3,5-Dihydroxyphenyglycine], the Z score (LOPAC screen, neurosphere MTT proliferation, 3 μM, day 7) is −0.336. Also, the Activity entry under setting [2] was “no”.

With `N[C@H](C(=O)O)c1cc(O)cc(O)c1` [(S)-3,5-Dihydroxyphenylglycine], under setting [8], the “Z Score” value is −0.3364. As to `CC[C@@]1(O)C(=O)OCc2c1cc1n(c2=O)Cc2cc3ccccc3nc2-1` [(S)-(+)-Camptothecin], the “Z Score” value under setting [6] was −9.67. Under setting [1], this compound returned a Z score of −9.670. The Activity entry under setting [7] is recorded as “yes”.
